Tests used:
Assay in all cases: biochemical
Type in all cases: biochemical
[1] = target: 363 human kinases (including Aurora A/B/C) (Homo sapiens, UniProt Q5S007); details: LRRK2; for remaining activity at 0.1 µM: 100 nM; for remaining activity at 0.1 µM / remaining activity at 0.5 µM: read-out: % Enzyme Activity (relative to DMSO controls)
Source text: (§1) However, the Aurora A/B selectivity ratios derived from our in vitro and in vivo data can be compared to prioritize inhibitors.

[2] = target: 363 human kinases (including Aurora A/B/C) (Homo sapiens, UniProt Q6P5Z2); details: PKN3/PRK3; for remaining activity at 0.1 µM: 100 nM; for remaining activity at 0.1 µM / remaining activity at 0.5 µM: read-out: % Enzyme Activity (relative to DMSO controls)
Source text: as §1

[3] = target: 363 human kinases (including Aurora A/B/C) (Homo sapiens, UniProt O96013); details: PAK4; for remaining activity at 0.1 µM: 100 nM; for remaining activity at 0.1 µM / remaining activity at 0.5 µM: read-out: % Enzyme Activity (relative to DMSO controls)
Source text: as §1

[4] = target: T1, 363 human kinases (including Aurora A/B/C) (Homo sapiens, UniProt Q96PY6); details: NEK1; for remaining activity at 0.1 µM: 100 nM; for remaining activity at 0.1 µM / remaining activity at 0.5 µM: read-out: % Enzyme Activity (relative to DMSO controls)
T1 sequence (Q96PY6 1-1258): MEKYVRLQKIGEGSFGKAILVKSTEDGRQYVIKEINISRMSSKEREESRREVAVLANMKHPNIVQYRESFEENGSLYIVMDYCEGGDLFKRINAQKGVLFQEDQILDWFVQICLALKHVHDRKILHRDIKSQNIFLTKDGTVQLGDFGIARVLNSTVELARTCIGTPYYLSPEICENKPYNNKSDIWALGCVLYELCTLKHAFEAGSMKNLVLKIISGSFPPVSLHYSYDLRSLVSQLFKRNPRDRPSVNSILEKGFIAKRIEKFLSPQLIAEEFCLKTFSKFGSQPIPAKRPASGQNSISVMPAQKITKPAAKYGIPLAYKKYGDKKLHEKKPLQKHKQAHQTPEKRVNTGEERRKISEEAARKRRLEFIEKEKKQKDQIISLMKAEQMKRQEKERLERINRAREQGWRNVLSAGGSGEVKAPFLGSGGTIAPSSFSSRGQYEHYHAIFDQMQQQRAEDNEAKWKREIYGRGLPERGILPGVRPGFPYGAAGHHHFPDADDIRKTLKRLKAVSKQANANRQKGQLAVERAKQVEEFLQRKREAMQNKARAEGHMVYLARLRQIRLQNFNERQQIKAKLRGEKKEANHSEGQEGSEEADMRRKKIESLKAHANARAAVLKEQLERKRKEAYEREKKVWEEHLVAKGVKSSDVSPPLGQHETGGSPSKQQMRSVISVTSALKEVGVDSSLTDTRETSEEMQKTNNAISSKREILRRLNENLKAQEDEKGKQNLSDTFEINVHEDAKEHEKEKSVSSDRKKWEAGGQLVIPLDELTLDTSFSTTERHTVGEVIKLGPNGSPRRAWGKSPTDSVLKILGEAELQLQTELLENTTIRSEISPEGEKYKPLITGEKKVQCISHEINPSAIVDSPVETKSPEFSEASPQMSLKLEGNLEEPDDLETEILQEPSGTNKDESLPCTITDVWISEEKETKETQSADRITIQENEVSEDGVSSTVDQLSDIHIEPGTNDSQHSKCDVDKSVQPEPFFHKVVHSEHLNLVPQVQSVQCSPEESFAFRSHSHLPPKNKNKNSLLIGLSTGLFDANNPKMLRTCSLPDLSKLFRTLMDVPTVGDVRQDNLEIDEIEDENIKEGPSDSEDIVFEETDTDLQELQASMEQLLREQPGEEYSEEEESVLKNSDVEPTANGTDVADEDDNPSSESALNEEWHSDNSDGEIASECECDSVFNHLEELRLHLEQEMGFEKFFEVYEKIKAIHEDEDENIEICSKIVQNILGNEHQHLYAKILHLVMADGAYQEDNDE
Source text: as §1

[5] = target: 363 human kinases (including Aurora A/B/C) (Homo sapiens, UniProt O75716); details: STK16; for remaining activity at 0.1 µM: 100 nM; for remaining activity at 0.1 µM / remaining activity at 0.5 µM: read-out: % Enzyme Activity (relative to DMSO controls)
Source text: as §1

[6] = target: 363 human kinases (including Aurora A/B/C) (Homo sapiens, UniProt Q86Y07); details: VRK2; for remaining activity at 0.1 µM: 100 nM; for remaining activity at 0.1 µM / remaining activity at 0.5 µM: read-out: % Enzyme Activity (relative to DMSO controls)
Source text: as §1

[7] = target: 363 human kinases (including Aurora A/B/C) (Homo sapiens, UniProt Q9P286); details: PAK5; for remaining activity at 0.1 µM: 100 nM; for remaining activity at 0.1 µM / remaining activity at 0.5 µM: read-out: % Enzyme Activity (relative to DMSO controls)
Source text: as §1

[8] = target: 363 human kinases (including Aurora A/B/C) (Homo sapiens, UniProt P08922); details: ROS/ROS1; for remaining activity at 0.1 µM: 100 nM; for remaining activity at 0.1 µM / remaining activity at 0.5 µM: read-out: % Enzyme Activity (relative to DMSO controls)
Source text: as §1

[9] = target: 363 human kinases (including Aurora A/B/C) (Homo sapiens, UniProt Q6P2M8); details: CAMK1b, [ATP] 5 µM; for remaining activity at 0.1 µM: 100 nM; for remaining activity at 0.1 µM / remaining activity at 0.5 µM: read-out: % Enzyme Activity (relative to DMSO controls)
Source text: as §1

[10] = target: 363 human kinases (including Aurora A/B/C) (Homo sapiens, UniProt Q9UKE5); details: TNIK; for remaining activity at 0.1 µM: 100 nM; for remaining activity at 0.1 µM / remaining activity at 0.5 µM: read-out: % Enzyme Activity (relative to DMSO controls)
Source text: as §1

[11] = target: 363 human kinases (including Aurora A/B/C) (Homo sapiens, UniProt P22612); details: PKAcg; for remaining activity at 0.1 µM: 100 nM; for remaining activity at 0.1 µM / remaining activity at 0.5 µM: read-out: % Enzyme Activity (relative to DMSO controls)
Source text: as §1

[12] = target: T2, 363 human kinases (including Aurora A/B/C) (Homo sapiens, UniProt P25098); details: GRK2; for remaining activity at 0.1 µM: 100 nM; for remaining activity at 0.1 µM / remaining activity at 0.5 µM: read-out: % Enzyme Activity (relative to DMSO controls)
T2 sequence (P25098 1-689): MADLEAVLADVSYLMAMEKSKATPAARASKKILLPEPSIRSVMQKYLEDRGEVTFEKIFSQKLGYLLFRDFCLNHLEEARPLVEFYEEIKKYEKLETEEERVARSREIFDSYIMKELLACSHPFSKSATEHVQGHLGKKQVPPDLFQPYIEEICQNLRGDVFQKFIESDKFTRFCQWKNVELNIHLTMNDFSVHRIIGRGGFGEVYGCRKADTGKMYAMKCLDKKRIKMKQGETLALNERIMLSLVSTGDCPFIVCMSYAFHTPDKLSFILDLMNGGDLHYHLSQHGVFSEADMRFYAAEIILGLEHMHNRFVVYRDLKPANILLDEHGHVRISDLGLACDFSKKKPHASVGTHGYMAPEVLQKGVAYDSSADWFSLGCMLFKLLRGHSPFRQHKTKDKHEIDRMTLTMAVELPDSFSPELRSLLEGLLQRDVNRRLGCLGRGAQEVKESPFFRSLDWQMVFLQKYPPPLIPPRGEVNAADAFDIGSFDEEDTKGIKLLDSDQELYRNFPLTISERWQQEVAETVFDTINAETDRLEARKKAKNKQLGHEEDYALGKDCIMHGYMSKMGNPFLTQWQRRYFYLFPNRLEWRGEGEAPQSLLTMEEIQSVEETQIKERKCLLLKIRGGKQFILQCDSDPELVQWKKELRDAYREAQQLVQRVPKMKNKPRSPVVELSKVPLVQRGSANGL
Source text: as §1

363 human kinases (including Aurora A/B/C) (Homo sapiens, UniProt O96013), sequence (O96013 whole entry): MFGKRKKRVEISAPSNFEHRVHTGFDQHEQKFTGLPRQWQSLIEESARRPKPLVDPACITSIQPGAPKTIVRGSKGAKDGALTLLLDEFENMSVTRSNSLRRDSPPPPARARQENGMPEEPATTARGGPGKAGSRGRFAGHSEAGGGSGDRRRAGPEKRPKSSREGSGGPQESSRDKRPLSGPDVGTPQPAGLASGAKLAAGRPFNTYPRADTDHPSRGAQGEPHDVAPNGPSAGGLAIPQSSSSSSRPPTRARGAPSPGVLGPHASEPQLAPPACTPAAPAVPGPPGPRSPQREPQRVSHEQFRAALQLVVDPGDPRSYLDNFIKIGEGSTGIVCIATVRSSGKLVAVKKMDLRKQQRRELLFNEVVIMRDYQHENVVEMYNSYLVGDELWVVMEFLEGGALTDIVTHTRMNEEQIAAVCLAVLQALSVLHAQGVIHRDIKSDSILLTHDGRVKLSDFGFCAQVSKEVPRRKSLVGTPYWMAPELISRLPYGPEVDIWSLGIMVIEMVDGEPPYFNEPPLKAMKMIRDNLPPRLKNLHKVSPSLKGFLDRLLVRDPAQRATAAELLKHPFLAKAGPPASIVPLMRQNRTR
363 human kinases (including Aurora A/B/C) (Homo sapiens, UniProt Q6P5Z2), sequence (Q6P5Z2 whole entry): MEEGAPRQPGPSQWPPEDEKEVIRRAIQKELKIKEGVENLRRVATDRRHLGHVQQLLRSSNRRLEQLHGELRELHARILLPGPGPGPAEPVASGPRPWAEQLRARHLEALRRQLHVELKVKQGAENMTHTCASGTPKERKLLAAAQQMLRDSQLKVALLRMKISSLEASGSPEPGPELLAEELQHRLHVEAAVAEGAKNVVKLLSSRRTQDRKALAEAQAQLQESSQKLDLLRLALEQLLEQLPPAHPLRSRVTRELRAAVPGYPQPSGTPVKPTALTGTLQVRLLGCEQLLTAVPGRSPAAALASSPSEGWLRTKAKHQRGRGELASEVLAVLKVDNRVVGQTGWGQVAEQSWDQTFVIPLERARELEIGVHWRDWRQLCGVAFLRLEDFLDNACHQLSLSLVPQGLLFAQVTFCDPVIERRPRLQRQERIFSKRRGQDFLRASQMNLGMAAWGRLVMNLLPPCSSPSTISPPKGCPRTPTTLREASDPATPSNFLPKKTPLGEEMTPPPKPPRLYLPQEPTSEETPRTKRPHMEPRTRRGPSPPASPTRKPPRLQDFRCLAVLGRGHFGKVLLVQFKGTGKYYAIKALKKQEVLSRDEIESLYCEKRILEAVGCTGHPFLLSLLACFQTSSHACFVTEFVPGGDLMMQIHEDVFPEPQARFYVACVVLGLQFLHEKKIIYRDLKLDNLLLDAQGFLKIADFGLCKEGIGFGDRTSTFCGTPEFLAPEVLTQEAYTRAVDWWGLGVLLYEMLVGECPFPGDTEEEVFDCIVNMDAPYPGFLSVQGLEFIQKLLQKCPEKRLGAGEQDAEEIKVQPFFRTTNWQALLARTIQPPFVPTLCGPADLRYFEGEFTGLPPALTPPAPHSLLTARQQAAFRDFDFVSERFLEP
363 human kinases (including Aurora A/B/C) (Homo sapiens, UniProt Q5S007), sequence (Q5S007 whole entry): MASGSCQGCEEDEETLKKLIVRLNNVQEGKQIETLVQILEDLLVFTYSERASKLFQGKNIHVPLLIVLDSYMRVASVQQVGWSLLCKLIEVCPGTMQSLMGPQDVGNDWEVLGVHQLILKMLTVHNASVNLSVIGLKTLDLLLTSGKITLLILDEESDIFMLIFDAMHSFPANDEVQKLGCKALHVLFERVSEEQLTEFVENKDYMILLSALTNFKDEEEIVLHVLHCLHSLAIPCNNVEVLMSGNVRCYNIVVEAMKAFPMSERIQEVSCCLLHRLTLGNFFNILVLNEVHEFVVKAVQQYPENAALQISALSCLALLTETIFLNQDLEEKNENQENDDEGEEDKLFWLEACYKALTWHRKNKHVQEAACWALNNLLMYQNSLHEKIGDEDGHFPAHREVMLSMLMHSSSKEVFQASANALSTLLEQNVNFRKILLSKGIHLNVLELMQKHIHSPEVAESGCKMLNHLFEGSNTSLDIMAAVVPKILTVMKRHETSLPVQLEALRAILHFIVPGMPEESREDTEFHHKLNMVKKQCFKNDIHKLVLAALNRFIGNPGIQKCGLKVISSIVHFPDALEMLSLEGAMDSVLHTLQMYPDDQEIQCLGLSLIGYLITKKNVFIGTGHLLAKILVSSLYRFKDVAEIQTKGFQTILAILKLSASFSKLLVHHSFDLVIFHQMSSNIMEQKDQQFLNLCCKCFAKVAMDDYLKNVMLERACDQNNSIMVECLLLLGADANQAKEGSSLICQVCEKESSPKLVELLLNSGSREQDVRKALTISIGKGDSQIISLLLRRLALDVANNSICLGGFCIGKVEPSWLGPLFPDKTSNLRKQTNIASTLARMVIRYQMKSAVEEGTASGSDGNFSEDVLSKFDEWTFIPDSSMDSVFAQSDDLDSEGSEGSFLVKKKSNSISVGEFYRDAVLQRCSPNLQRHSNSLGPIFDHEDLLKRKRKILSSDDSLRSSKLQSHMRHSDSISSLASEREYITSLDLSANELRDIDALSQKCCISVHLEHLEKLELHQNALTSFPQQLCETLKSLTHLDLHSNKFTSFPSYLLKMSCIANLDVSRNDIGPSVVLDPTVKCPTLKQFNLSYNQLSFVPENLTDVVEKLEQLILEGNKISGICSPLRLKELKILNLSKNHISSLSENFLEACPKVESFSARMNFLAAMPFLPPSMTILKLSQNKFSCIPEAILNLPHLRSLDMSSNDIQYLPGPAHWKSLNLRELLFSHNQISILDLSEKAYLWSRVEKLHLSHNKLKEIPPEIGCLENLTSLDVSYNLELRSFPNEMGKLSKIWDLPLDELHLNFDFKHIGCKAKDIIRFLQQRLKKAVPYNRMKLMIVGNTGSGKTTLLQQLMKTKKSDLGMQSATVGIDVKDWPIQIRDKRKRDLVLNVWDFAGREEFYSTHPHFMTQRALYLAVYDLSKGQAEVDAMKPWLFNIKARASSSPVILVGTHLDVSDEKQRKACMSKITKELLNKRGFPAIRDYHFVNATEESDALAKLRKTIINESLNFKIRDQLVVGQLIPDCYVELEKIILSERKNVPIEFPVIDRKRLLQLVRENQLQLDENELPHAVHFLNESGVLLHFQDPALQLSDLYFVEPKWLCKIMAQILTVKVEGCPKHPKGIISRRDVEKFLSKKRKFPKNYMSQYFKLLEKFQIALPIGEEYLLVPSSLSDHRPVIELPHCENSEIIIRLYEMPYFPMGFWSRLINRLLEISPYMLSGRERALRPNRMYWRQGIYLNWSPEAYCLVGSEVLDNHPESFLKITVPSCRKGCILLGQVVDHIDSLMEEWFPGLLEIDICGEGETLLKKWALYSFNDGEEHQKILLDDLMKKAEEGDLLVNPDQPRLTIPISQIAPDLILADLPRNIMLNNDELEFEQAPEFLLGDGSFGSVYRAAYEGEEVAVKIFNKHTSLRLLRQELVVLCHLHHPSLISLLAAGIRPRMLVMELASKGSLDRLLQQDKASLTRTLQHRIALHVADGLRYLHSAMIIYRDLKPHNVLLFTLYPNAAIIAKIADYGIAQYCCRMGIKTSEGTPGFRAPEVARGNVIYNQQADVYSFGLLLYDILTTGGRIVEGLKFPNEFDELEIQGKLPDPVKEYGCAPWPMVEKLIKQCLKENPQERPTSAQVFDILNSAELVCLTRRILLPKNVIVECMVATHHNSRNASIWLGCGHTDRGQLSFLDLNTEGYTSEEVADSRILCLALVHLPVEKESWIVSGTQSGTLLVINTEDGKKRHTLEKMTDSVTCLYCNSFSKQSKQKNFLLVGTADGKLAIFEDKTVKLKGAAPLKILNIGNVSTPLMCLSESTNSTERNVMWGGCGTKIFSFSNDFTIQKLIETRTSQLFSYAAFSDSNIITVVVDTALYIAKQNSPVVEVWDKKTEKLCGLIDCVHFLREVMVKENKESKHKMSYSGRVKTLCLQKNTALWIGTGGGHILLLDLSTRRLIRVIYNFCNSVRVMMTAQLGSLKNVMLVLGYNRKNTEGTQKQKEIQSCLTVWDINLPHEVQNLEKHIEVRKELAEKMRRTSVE
363 human kinases (including Aurora A/B/C) (Homo sapiens, UniProt Q9P286), sequence (Q9P286 whole entry): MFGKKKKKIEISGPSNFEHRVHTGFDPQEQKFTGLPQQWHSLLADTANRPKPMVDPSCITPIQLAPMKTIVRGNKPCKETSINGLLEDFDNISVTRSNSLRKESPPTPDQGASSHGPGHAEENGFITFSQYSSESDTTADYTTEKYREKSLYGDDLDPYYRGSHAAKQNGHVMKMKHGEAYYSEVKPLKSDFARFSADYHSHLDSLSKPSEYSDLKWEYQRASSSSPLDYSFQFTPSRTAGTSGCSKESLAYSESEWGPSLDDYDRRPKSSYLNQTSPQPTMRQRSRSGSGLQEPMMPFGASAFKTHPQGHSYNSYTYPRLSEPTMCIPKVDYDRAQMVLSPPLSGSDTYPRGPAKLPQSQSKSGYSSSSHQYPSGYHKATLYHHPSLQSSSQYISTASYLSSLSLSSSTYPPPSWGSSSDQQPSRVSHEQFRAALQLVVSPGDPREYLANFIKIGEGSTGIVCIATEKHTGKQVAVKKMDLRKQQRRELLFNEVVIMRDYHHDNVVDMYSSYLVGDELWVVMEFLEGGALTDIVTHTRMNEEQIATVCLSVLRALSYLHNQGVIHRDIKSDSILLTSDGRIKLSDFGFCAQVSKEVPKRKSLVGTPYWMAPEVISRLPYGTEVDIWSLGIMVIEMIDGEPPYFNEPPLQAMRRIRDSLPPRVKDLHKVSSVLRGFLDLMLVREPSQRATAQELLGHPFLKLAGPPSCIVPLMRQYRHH
363 human kinases (including Aurora A/B/C) (Homo sapiens, UniProt Q6P2M8), sequence (Q6P2M8 whole entry): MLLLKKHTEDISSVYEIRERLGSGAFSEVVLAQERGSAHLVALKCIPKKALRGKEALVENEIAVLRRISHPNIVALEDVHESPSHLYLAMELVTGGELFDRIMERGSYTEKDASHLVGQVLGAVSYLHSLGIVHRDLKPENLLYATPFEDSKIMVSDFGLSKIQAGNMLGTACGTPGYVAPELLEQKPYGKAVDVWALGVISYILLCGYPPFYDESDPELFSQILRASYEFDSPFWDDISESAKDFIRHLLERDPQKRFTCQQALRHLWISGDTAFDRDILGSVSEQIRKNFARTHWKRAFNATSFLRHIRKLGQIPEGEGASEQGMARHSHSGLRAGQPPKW

CCn1cc(-c2ccnc3[nH]c(-c4cccc(CN(C)C)c4)cc23)c(-c2ccc(NC(=O)N(C)C)cc2)n1 [GSK1070916]
remaining activity at 0.1 µM [1]: 92.1% | remaining activity at 0.1 µM [2]: 107% | remaining activity at 0.1 µM [3]: 106% | remaining activity at 0.1 µM [4]: 101% | remaining activity at 0.1 µM [5]: 107% | remaining activity at 0.1 µM [6]: 106% | remaining activity at 0.1 µM [7]: 99.9% | remaining activity at 0.1 µM [8]: 102% | remaining activity at 0.1 µM [9]: 99.4% | remaining activity at 0.1 µM [10]: 57.3% | remaining activity at 0.1 µM [11]: 102% | remaining activity at 0.1 µM [12]: 101%

O=C(O)[C@]1(Cc2cccc(Nc3nccs3)n2)CC[C@@H](Oc2cccc(Cl)c2F)CC1 [MK-5108]
remaining activity at 0.1 µM [1]: 52.7% | remaining activity at 0.5 µM ([1]; 500 nM): 14.2% | remaining activity at 0.1 µM [2]: 90.8% | remaining activity at 0.5 µM ([2]; 500 nM): 88.2% | remaining activity at 0.1 µM [3]: 92.8% | remaining activity at 0.5 µM ([3]; 500 nM): 89.8% | remaining activity at 0.1 µM [4]: 101% | remaining activity at 0.5 µM ([4]; 500 nM): 103% | remaining activity at 0.1 µM [5]: 70.7% | remaining activity at 0.5 µM ([5]; 500 nM): 15.2% | remaining activity at 0.1 µM [6]: 114% | remaining activity at 0.5 µM ([6]; 500 nM): 91.7% | remaining activity at 0.1 µM [7]: 107% | remaining activity at 0.5 µM ([7]; 500 nM): 78.1% | remaining activity at 0.1 µM [8]: 0.98% | remaining activity at 0.5 µM ([8]; 500 nM): 1.15% | remaining activity at 0.1 µM [9]: 89.2% | remaining activity at 0.5 µM ([9]; 500 nM): 102% | remaining activity at 0.1 µM [10]: 49.5% | remaining activity at 0.5 µM ([10]; 500 nM): 14.8% | remaining activity at 0.1 µM [11]: 89.9% | remaining activity at 0.5 µM ([11]; 500 nM): 103% | remaining activity at 0.1 µM [12]: 102% | remaining activity at 0.5 µM ([12]; 500 nM): 106%

O=C(c1cccc(Cl)c1F)N1CCN(Cc2cccc(Nc3nccs3)n2)CC1 [MK-8745]
% Enzyme Activity (relative to DMSO controls) ([1]; 500 nM): 88.73% | remaining activity at 0.5 µM ([1]; 500 nM): 92.8% | % Enzyme Activity (relative to DMSO controls) ([2]; 500 nM): 100.01% | remaining activity at 0.5 µM ([2]; 500 nM): 100% | % Enzyme Activity (relative to DMSO controls) ([3]; 500 nM): 92.31% | remaining activity at 0.5 µM ([3]; 500 nM): 95.9% | % Enzyme Activity (relative to DMSO controls) ([4]; 500 nM): 94.59% | remaining activity at 0.5 µM ([4]; 500 nM): 97.9% | % Enzyme Activity (relative to DMSO controls) ([5]; 500 nM): 70.34% | remaining activity at 0.5 µM ([5]; 500 nM): 71.1% | % Enzyme Activity (relative to DMSO controls) ([6]; 500 nM): 103.85% | remaining activity at 0.5 µM ([6]; 500 nM): 107% | % Enzyme Activity (relative to DMSO controls) ([7]; 500 nM): 92.01% | remaining activity at 0.5 µM ([7]; 500 nM): 103% | % Enzyme Activity (relative to DMSO controls) ([8]; 500 nM): 3.19% | remaining activity at 0.5 µM ([8]; 500 nM): 3.49% | % Enzyme Activity (relative to DMSO controls) ([9]; 500 nM): 98.69% | remaining activity at 0.5 µM ([9]; 500 nM): 100% | % Enzyme Activity (relative to DMSO controls) ([10]; 500 nM): 77.61% | remaining activity at 0.5 µM ([10]; 500 nM): 81.3% | % Enzyme Activity (relative to DMSO controls) ([11]; 500 nM): 97.46% | remaining activity at 0.5 µM ([11]; 500 nM): 97.7% | % Enzyme Activity (relative to DMSO controls) ([12]; 500 nM): 103.92% | remaining activity at 0.5 µM ([12]; 500 nM): 105%

Source: publication PMC4685510, “A Cell Biologist’s Field Guide to Aurora Kinase Inhibitors” (Frontiers in Oncology, 2015)
